Test results from PMC7256013, “Preclinical evaluation of cationic DOTA-triarginine-lipid conjugates for theranostic liquid brachytherapy” (Nanotheranostics, 2020).
Residues, ends and D or L forms follow the SMILES beside them. *: point of attachment. DOTA = O=C(O)CN1CCN(CC(=O)O)CCN(CC(=O)*)CCN(CC(=O)O)CC1; Stearoyl = CCCCCCCCCCCCCCCCCC(=O)*; Palmitoyl = CCCCCCCCCCCCCCCC(=O)*

Columns and labels:
[1] = Ex vivo well counting of tumor and organs; conditions: ex vivo after the 24-hour scan, mean ± SEM
Description: After the completion of PET/CT imaging, mice were sacrificed and tumor, spleen, and liver tissue were collected and well counted (Wizard, Perkin Elmer, US). Tissue radioactivity was recorded and corrected for isotope decay and well counter efficiency. Final results are presented in %ID/organ calculated from activity and the tissue weight.

[2] = Tumor retention and biodistribution by PET/CT after intratumoral injection; conditions: mean ± SEM; for Absolute retention of radioactivity in tumors: PET; for tumor retention: CT26 tumor, PET/CT
Description: CT26 wildtype cells (murine colon carcinoma, ATCC, Virginia, US) were cultured RPMI (Roswell Park Memorial Institute) medium supplemented with 10 % heat-inactivated Fetal Calf Serum (FCS) and 1 % Penicillin-Streptomycin (Invitrogen, Carlsbad, CA., US) retained in 5 % CO2 incubator at 37 °C. Immunocompetent female Balb/C mice (Charles River, Wilmington, MA., USA) were inoculated with tumor cells after one week of adaptation. All 20 mice included were inoculated subcutaneously with 3 x 10^5 CT26 wildtype cells in 100 µL medium on the right flank and hereafter monitored for weight and tumor size continuously for study purposes and to monitor the health of the mice. Tumor sizes were calculated from the formula of 0.52 x lenght^2 x width, as measured by external caliper. Animals were included in the study when tumors were approximately 400 mm^3.
(§2) Mice were injected intratumorally with ^64Cu-compounds in concentrations of 40 MBq/mL. During the scan procedures, mice were anaesthetized using 3-4 % sevoflurane (Abbott Scandinavia AB, Sweden) mixed with 35% O2 and 65% medical grade air and placed on heating pads. Two mice were positioned side-by-side, separated by a 6 mm polystyrene block for PET/CT imaging using Inveon® small animal PET/CT system with CT based PET image attenuation (Siemens Medical Systems, Malvern, PA, USA). The protocol included a 12-minute PET scan, followed by a CT scan. Mice were fixed on a bed inside the scanner with the syringe placed and the needle fixed centrally in the tumor and ready for injection. Upon initiation of the first scan, intratumoral injections were done manually over 30 seconds, to investigate the initial dynamics of the tracer diffusion. Following this, two further scans were included; at six hours (5 minutes scan time) and 24 hours (12 minutes scan time) after injection. Reconstruction of the PET scans were performed using maximum a posteriori (MAP) reconstruction algorithm (voxel size: 0.815 x 0.815 x 0.796 mm; resolution (FWHM) 1.2 mm). The injection scan was reconstructed in 4 x 30 second and 10 x 60 second time frames to observe the dynamics of tracer diffusion. The two last time points were reconstructed in a single time frame.
(§3) Image analysis was performed using commercially available Inveon software (Siemens Medical Systems, Malvern, PA, USA). Regions of interest (ROIs) were manually drawn based on the co-registered PET/CT images. The following ROIs were constructed; tumors (complete volume delineated), liver, spleen, kidney, bladder, and blood. Blood activity was estimated from a constructed ROI covering the left ventricular lumen of the heart. ROIs in the left ventricle and abdominal aorta were subsequently segmented to only include the voxels displaying above 80% of maximum activity with the original ROI. From the obtained uptake values all data was calculated into %ID/g for each organ and as %ID in tumors by adjusting for CT based tumor volume. Furthermore, voxel values from tumor ROIs were used to generate histograms for substance diffusion over time in the tumor region.

[3] = Intratumoral distribution of radioactivity, voxel frequency distribution from PET
Description: as §2, §3
Note that the first point in each plot represents the percentage of voxels with radioactivity concentrations lower than 1.6 %ID/g. These voxels are considered empty, meaning that the corresponding tumor region is non-radioactive.

CT26 cells = assay: Cytotoxicity, MTS assay; type: cell-based, murine; conditions: 4000 cells/well, 24 h incubation with compound, then 48 h without, absorbance 490 nm
Description: CT26 (murine colon carcinoma) was purchased from ATTC (Rockville) and cultured in DMEM medium supplemented with 10% fetal calf serum and pen-strep (Invitrogen Inc) at 37 °C and 5% CO2 in a humidified atmosphere. A commercial MTS assay was used to assess cytotoxicity. (Promega, CellTiter 96® AQueous One Solution Cell Proliferation Assay).
Cells were plated onto 96 well plates at a density of 4000 cells/well the day before the start of experiment. The original culture medium was replaced by medium containing increasing amounts of the indicated agents. After 24 h incubation with D3R-C16 or D3R-C18, the medium was removed and the cells were further incubated for another 48 hours. To measure metabolically active cells, 100 µL of MTS solution was added to the wells and incubated until sufficient amount of color was developed and within the linear range. The absorbance was measured at 490 nm using a microplate reader (Sunrise, Tecan).

[4] = Critical micelle concentration by surface tension measurement (Du Noüy); type: physicochemical; conditions: 0.49-250 µM
Description: An Ez-pi+ surface tensiometer, with dyneprobe (diameter: 0.51 mm) and polypropylene sample cuvettes were purchased from Kibron to measure the surface tension.
(§1) D3R-C16 or D3R-C18 was dispersed in ISO-HEPES-NaCl or ISO-HEPES-Sucrose for a final concentration of 250 μM as stock solutions. Sample series were prepared by diluting the stock solutions with ISO-HEPES-NaCl or ISO-HEPES-Sucrose into concentrations of 125, 62.5, 31.25, 15.63, 7.81, 3.91, 1.95, 0.98 and 0.49 μM. The surface tension of the sample was measured by the Du Noüy method with a platinum probe. For each sample, the measurements were repeated until three consecutive measurements varied with less than 1 mN/m between them. Based on the critical micelle concentration of D3R-C18, a micellar dispersion of D3R-C18 in ISO-HEPES-Sucrose (2.0 mM) was prepared. The zeta potential of the D3R-C18 micelles was measured on a Zetasizer (Malvern).

[5] = Micelle size (DLS) and zeta potential; type: physicochemical; conditions: for PDI of micelles / average size of micelles (Z-average): 2.0 mM in ISO-HEPES, DLS; for average size of micelles (Z-average): broad distribution
Description: Liposomes were prepared using a mini-extruder (Avanti Polar Lipids) or a LIPEX Thermobarrel Pressure Extruder (10 mL, Northern Lipids). The hydrodynamic size and zeta potential of liposomes were measured by dynamic light scattering (DLS) on a Zetasizer (Malvern). Intensity weighted lognormal mean sizes are reported, unless otherwise noted. Sizes were measured in ISO-HEPES-NaCl and zeta potentials were measured in ISO-HEPES-Sucrose. Lipid concentrations were measured by ICP-MS (Thermo Scientifc, iCAP Q) by quantifying the phosphorous content of liposome samples against an internal standard of gallium (10 ppb). Sephadex G-25 PD-10 columns (8.3 mL bed volume) were purchased from GE Healthcare.
as §1

[6] = Partitioning of radiolabeled surfactant into liposomes (SEC, PD-10); type: physicochemical; conditions: 37 °C, 60 min, for D3R-C18 at lipid 0.36 and 0.72 mM
Description: Three different liposomes types were prepared: (1) POPC only, (2) POPC-POPG (9:1), (3) commercially available stealth lipid mixture (see above). POPC or the POPC-POPG mixture was freeze- dried from tert-butanol:water (9:1). The resulting lyophilizate or the stealth lipid mixture (187.5 mg) was then hydrated with ISO-HEPES-NaCl (5.0 mL) at 65 ℃ for 60 minutes by magnetic stirring. This was followed by sizing through a mini-extruder with a cut-off size of 100 nm. Size, PDI and zeta potential of all three preparations were measured (Table 1). The liposomes were diluted to lipid concentrations of 0.4, 1.0 and 4.0 mM for partitioning studies.
A dispersion of ^64Cu-D3R-C16 (200 μM) in ISO-HEPES-NaCl (100 µL) was added to POPC liposomes (900 µL, 0.4 mM). The resulting mixture was magnetically stirred at 37 ℃. Mixtures were separated by size-exclusion chromatography (SEC) at 10, 30, 60, 120 and 180 minutes after addition. An aliquot (100 µL) was applied to a PD-10 cartridge and eluted with ISO-HEPES-NaCl. […] The radioactivities of the two collected fractions and the column were measured by dose calibrator. […] The partitioning of the radiolabeled constructs into liposomes was calculated as the ratio of the radioactivity in the liposomal fraction to the total radioactivity of the liposomal fraction plus the column. […] The mixtures were analyzed by SEC by applying 200 µL to a PD-10 cartridge (see above). […]

[7] = 12 minutes post intratumoral injection, 40 MBq/mL
[8] = 5 minutes after the start of the PET scan
[9] = in ISO-HEPES-NaCl (10 mM HEPES, 150 mM NaCl, pH 7.4)
[10] = in ISO-HEPES-Sucrose (10 mM HEPES, 300 mM sucrose, pH 7.4)

Row | Accumulation of radioactivity in liver [1] | Accumulation of radioactivity in spleen [1] | Accumulation of radioactivity in tumor [1] | Absolute retention of radioactivity in tumors ([2]; 0.25 min) | Absolute retention of radioactivity in tumors ([2]; 0.75 min) | Absolute retention of radioactivity in tumors ([2]; 1.25 min) | Absolute retention of radioactivity in tumors ([2]; 1.75 min) | Absolute retention of radioactivity in tumors ([2]; 2.5 min) | Absolute retention of radioactivity in tumors ([2]; 3.5 min) | Absolute retention of radioactivity in tumors ([2]; 4.5 min) | Absolute retention of radioactivity in tumors ([2]; 5.5 min) | Absolute retention of radioactivity in tumors ([2]; 6.5 min) | Absolute retention of radioactivity in tumors ([2]; 7.5 min) | Absolute retention of radioactivity in tumors ([2]; 8.5 min) | Absolute retention of radioactivity in tumors ([2]; 9.5 min) | Absolute retention of radioactivity in tumors ([2]; 10.5 min) | Absolute retention of radioactivity in tumors ([2]; 11.5 min) | tumor retention [2, 7] | Absolute retention of radioactivity in tumors ([2]; 6 h) | Absolute retention of radioactivity in tumors ([2]; 24 h) | SMILES | other results
1 | 1 ± 0.2 ID%/g | 0.3 ± 0.05 ID%/g | 1 ± 0.3 ID%/g | 78 ± 37 %ID/g | 130 ± 13 %ID/g | 127 ± 14 %ID/g | 123 ± 14 %ID/g | 120 ± 14 %ID/g | 115 ± 14 %ID/g | 111 ± 14 %ID/g | 108 ± 14 %ID/g | 105 ± 14 %ID/g | 102 ±14 %ID/g | 100 ± 14 %ID/g | 97 ± 13 %ID/g | 94 ± 13 %ID/g | 92 ± 12 %ID/g | 52 ± 4 %ID/tumor | 4 ± 1 %ID/g | 2 ± 0.8 %ID/g | O=C([O-])CN1CCN(CC(=O)[O-])CCN(CC(=O)O)CCN(CC(=O)O)CC1.[64Cu+2] [64Cu-DOTA] | tumor retention ([2]; 6 hours post intratumoral injection): 2.4 ± 0.7 %ID/tumor; tumor retention ([2]; 24 hours post intratumoral injection): 1.4 ± 0.4 %ID/tumor; non-radioactive voxels in tumor (<1.6 %ID/g) [3, 8]: less than 10%; non-radioactive voxels in tumor (<1.6 %ID/g) ([3]; 6 h): More than 40%
2 | – | – | – | – | – | – | – | – | – | – | – | – | – | – | – | – | – | – | – | – | CCCCCCCCCCCCCCCC(=O)N[C@@H](CCCNC(=N)N)C(=O)N[C@@H](CCCNC(=N)N)C(=O)N[C@@H](CCCNC(=N)N)C(=O)N[C@@H](CCCCNC(=O)CN1CCN(CC(=O)O)CCN(CC(=O)O)CCN(CC(=O)O)CC1)C(N)=O [D3R-C16] (Palmitoyl-RRRK(DOTA)-NH2) | median lethal concentration (LC50) (CT26 cells): above 100 µM; CMC [4, 9]: about 40 µM; CMC [4, 10]: above 100 µM; PDI of micelles [5]: 0.3; average size of micelles (Z-average) [5]: 10 nm; stealth liposome partitioning, 177Lu label compared with 64Cu label [6]: no significant difference
3 | – | – | – | – | – | – | – | – | – | – | – | – | – | – | – | – | – | – | – | – | CCCCCCCCCCCCCCCCCC(=O)N[C@@H](CCCNC(=N)N)C(=O)N[C@@H](CCCNC(=N)N)C(=O)N[C@@H](CCCNC(=N)N)C(=O)N[C@@H](CCCCNC(=O)CN1CCN(CC(=O)O)CCN(CC(=O)O)CCN(CC(=O)O)CC1)C(N)=O [D3R-C18] (Stearoyl-RRRK(DOTA)-NH2) | median lethal concentration (LC50) (CT26 cells): above 100 µM; CMC [4, 9]: about 10 µM; CMC [4, 10]: above 100 µM; PDI of micelles [5]: 0.3; average size of micelles (Z-average) [5]: 10 nm; zeta potential of micelles ([5]; 2.0 mM micellar dispersion in ISO-HEPES-Sucrose, Zetasizer): 20.7 ± 0.5 mV
4 | 14 ± 1 ID%/g | 2 ± 0.6 ID%/g | 11 ± 3 ID%/g | 97 ± 19 %ID/g | 167 ± 50 %ID/g | 164 ± 53 %ID/g | 162 ± 54 %ID/g | 159 ± 53 %ID/g | 156 ± 54 %ID/g | 154 ± 53 %ID/g | 152 ± 53 %ID/g | 150 ± 53 %ID/g | 148 ± 52 %ID/g | 146 ± 52 %ID/g | 145 ± 53 %ID/g | 143 ± 52 %ID/g | 142 ± 51 %ID/g | 45 ± 5 %ID/tumor | 18 ± 3 %ID/g | 10 ± 1 %ID/g | [Cl][64Cu][Cl] [Free 64CuCl2] | non-radioactive voxels in tumor (<1.6 %ID/g) [3, 8]: less than 10%
